From patent US20240309004A1, “SELECTIVE CYCLIN-DEPENDENT KINASE INHIBITORS AND METHODS OF THERAPEUTIC USE THEREOF” (ViroKyne Therapeutics, LLC, priority 2021, published 2024)
Read-outs that look alike come from different tables or passages of the source.

Tests used:
[1] = tested on: HCMV strain AD169; assay: HCMV primary assay (CPE), strain AD169, HFF cells; assay type: cell-based, Human Cytomegalovirus
Protocol: The antiviral activity of the compound against HCMV in the described Primary assay was measured by treating primary Human foreskin fibroblast (HFF) cells infected with HCMV with a range of compound concentrations—description of methods for this assay can be found in section 1.3.2.1. […] . Additional tested assay parameters in this Primary assay can be found in Table 3.2.1 and include EC90, S150, and S190 values—descriptions of those data points can be found in section 3.2.1.

[2] = Cytotoxicity concurrent with HCMV AD169 primary assay; assay type: cell-based, human; settings: human
[3] = Cytotoxicity concurrent with HSV2 primary assay; assay type: cell-based; settings: human
Protocol: (§1) Assays were performed in monolayers as described. […] Toxicity was measured using CTG as above. […] Toxicity was measured using CTG as above.

[4] = tested on: HSV2 strain G; assay: HSV2 primary assay, strain G, HFF cells; assay type: cell-based, herpes simplex virus 2
Protocol: as §1
(§2) Monolayers of HFF cells were prepared in six-well plates and incubated at 37° C. for 2 d to allow the cells to reach confluency. Media was then aspirated from the wells and 0.2 mL of virus-containing solution was added to each of three wells to yield 20-30 plaques in each well. The virus was allowed to adsorb to the cells for 1 h and the plates were agitated every 15 minutes. Compounds were diluted in assay media consisting of MEM with Earl's salts supplemented with 2% FBS, glutamine, penicillin, and gentamycin. Diluted drug was added to duplicate wells and the plates were incubated for various times, depending on the virus used. For HSV-1 and -2, the monolayers were then stained with 1% crystal violet in 20% methanol and the unbound dye removed by washing with dH20. For all other assays, the cell monolayer was stained with 1% Neutral Red solution for 4-6 h then the stain was aspirated and the cells were washed with PBS.

[5] = tested on: VZV strain Ellen; assay: VZV primary assay, strain Ellen, HFF cells; assay type: cell-based, Varicella Zoster Virus
Protocol: as §1, §2

[6] = tested on: Adenovirus Adenoid75 strain; assay: Adenovirus primary assay, Adenoid75 strain, HFF cells; assay type: cell-based; settings: unidentified adenovirus
[7] = tested on: Epstein-Barr virus Akata strain; assay: Epstein-Barr primary assay, Akata strain, Akata cells; assay type: cell-based
[8] = Cytotoxicity concurrent with Adenovirus primary assay; assay type: cell-based; settings: human
[9] = Cytotoxicity concurrent with HSV1 E-377 primary assay; assay type: cell-based; settings: human
Protocol: as §1

[10] = Cytotoxicity concurrent with EBV primary assay; settings: human, Akata cells without virus induction
[11] = Cytotoxicity concurrent with VZV Ellen primary assay; assay type: cell-based; settings: human
Protocol: as §1

[12] = tested on: HSV1 strain E-377; assay: HSV1 primary assay, strain E-377, HFF cells; assay type: cell-based, Herpes Simplex Virus 1
Protocol: as §1, §2

[13] = Human betaherpesvirus 5, HCMV primary assay, virus strain AD169, HFF cells, read-out: EC50
[14] = Human betaherpesvirus 5, HCMV primary assay, virus strain AD169, HFF cells, read-out: EC90
[15] = Human alphaherpesvirus 2, HSV2 primary assay, strain G, HFF cells, read-out: EC50
[16] = Human alphaherpesvirus 2, HSV2 primary assay, strain G, HFF cells, read-out: EC90
[17] = Human alphaherpesvirus 3, VZV primary assay, strain Ellen, cell line HFF, read-out: EC50
[18] = Human alphaherpesvirus 3, VZV primary assay, strain Ellen, cell line HFF, read-out: EC90
[19] = Adenovirus primary assay, HFF cells, Adenoid75 strain, read-out: EC50
[20] = Adenovirus primary assay, HFF cells, Adenoid75 strain, read-out: EC90
[21] = human gammaherpesvirus 4, Epstein-Barr primary assay, Akata strain, Akata cells, read-out: EC50
[22] = human gammaherpesvirus 4, Epstein-Barr primary assay, Akata strain, Akata cells, read-out: EC90
[23] = Human alphaherpesvirus 1, HSV1 primary assay, strain E-377, HFF cells, read-out: EC50
[24] = Human alphaherpesvirus 1, HSV1 primary assay, strain E-377, HFF cells, read-out: EC90
[25] = Human betaherpesvirus 5, AD169, HFF
[26] = human gammaherpesvirus 4, Akata

Row | Compound | EC50 [1, 13] [µM] | EC90 [1, 14] [µM] | CC50 ([2]; CC50) [µM] | CC50 [3] [µM] | EC50 [4, 15] [µM] | EC90 [4, 16] [µM] | EC50 [5, 17] [µM] | EC90 [5, 18] [µM] | EC50 [6, 19] [µM] | EC90 [6, 20] [µM] | EC50 [7, 21] [µM] | EC90 [7, 22] [µM] | CC50 [8] [µM] | CC50 [9] [µM] | CC50 at 72 h [10] [µM] | CC50 [11] [µM] | EC50 [12, 23] [µM] | EC90 [12, 24] [µM] | further results
1 | CC(C)(C)OC(=O)NCC1CCC(Nc2cc3c4ccc(F)cc4nn3cn2)CC1 (stereo not drawn) [VKT-001] | 2 | 2 | 6.19 | – | – | – | – | – | – | – | – | – | – | – | – | – | – | – | –
2 | NCC1CCC(Nc2cc3c4ccc(F)cc4nn3cn2)CC1 (stereo not drawn) [VKT-002] | 2 | 2 | 7.42 | 24.4 | 10 | 10 | 2 | 2 | 4.44 | 10 | 1.78 | 2 | 21.2 | 20.8 | 6.69 | 7.9 | 10 | 10 | –
3 | CN(C(=O)OC(C)(C)C)C1CCC(Nc2cc3c4ccc(F)cc4nn3cn2)CC1 (stereo not drawn) [VKT-005] | 0.4 | 0.4 | 1.48 | 7.94 | 2 | 2 | 0.4 | 0.4 | 2 | 2 | 10 | 10 | 3.81 | 16 | 39.4 | 1.48 | 10 | 10 | –
4 | CNC1CCC(Nc2cc3c4ccc(F)cc4nn3cn2)CC1 (stereo not drawn) [VKT-006] | 10 | 10 | 32.5 | 42.8 | 10 | 10 | 10 | 10 | 10 | 10 | 8.32 | 10 | 30.5 | 38.5 | 33.5 | 27.2 | 10 | 10 | –
5 | CN(C)CC1CCC(Nc2cc3c4ccc(F)cc4nn3cn2)CC1 (stereo not drawn) [VKT-008] | 10 | 10 | 38.8 | 50 | 50 | 50 | 10 | 10 | 10 | 10 | 8.16 | 44 | 48.6 | 50 | 50 | 37.2 | 50 | 50 | –
6 | CN(c1cc2c3ccc(F)cc3nn2cn1)C1CCC(CNC(=O)OC(C)(C)C)CC1 (stereo not drawn) [VKT-009-A] | 0.4 | 0.4 | 0.57 | – | – | – | – | – | – | – | – | – | – | – | – | – | – | – | –
7 | CN(CC1CCC(N(C)c2cc3c4ccc(F)cc4nn3cn2)CC1)C(=O)OC(C)(C)C (stereo not drawn) [VKT-009-B] | 0.08 | 0.08 | 0.17 | – | – | – | – | – | – | – | – | – | – | – | – | – | – | – | –
8 | CC1CC(Nc2cc3c4ccc(F)cc4nn3cn2)CCO1 (stereo not drawn) [VKT-011] | 10 | 10 | 38.6 | – | – | – | – | – | – | – | – | – | – | – | – | – | – | – | –
9 | CC1CC(Nc2cc3c4ccc(F)cc4nn3cn2)CC(C)O1 (stereo not drawn) [VKT-013] | 10 | 10 | 48.1 | – | – | – | – | – | – | – | – | – | – | – | – | – | – | – | –
10 | Fc1ccc2c(c1)nn1cnc(NC3COCCOC3)cc21 [VKT-016] | 10 | 10 | 48.5 | – | – | – | – | – | – | – | – | – | – | – | – | – | – | – | –
11 | Fc1ccc2c(c1)nn1cnc(NC3CCSCC3)cc21 [VKT-017] | 10 | 10 | 21.4 | 50 | 50 | 50 | 10 | 10 | 10 | 10 | 23.4 | 41.5 | 46.7 | 50 | 50 | 37.1 | 50 | 50 | –
12 | CN1CCC(Nc2cc3c4ccc(F)cc4nn3cn2)CC1 [VKT-023] | – | – | 46 | 50 | – | – | – | – | – | – | – | – | 50 | 50 | 50 | 44.7 | – | – | EC50 ([4]; Human alphaherpesvirus 2, HFF): 50 µM; EC90 ([4]; Human alphaherpesvirus 2, HFF): 50 µM; EC50 [1, 25]: 10 µM; EC90 [1, 25]: 10 µM; EC50 ([5]; Human alphaherpesvirus 3, HFF): 10 µM; EC90 ([5]; Human alphaherpesvirus 3, HFF): 10 µM; EC50 ([6]; HFF): 50 µM; EC90 ([6]; HFF): 50 µM; EC50 [7, 26]: 29.5 µM; EC90 [7, 26]: 50 µM; EC50 ([12]; Human alphaherpesvirus 1, HFF): 50 µM; EC90 ([12]; Human alphaherpesvirus 1, HFF): 50 µM
13 | CCN1CCC(Nc2cc3c4ccc(F)cc4nn3cn2)CC1 [VKT-025] | 10 | 10 | 48.1 | – | – | – | – | – | – | – | – | – | – | – | – | – | – | – | –
14 | CN(C)CC(=O)N1CCC(Nc2cc3c4ccc(F)cc4nn3cn2)CC1 [VKT-028] | 10 | 10 | 32 | – | – | – | – | – | – | – | – | – | – | – | – | – | – | – | –
15 | CNC(=O)CN1CCC(Nc2cc3c4ccc(F)cc4nn3cn2)CC1 [VKT-031] | 50 | 50 | 50 | – | – | – | – | – | – | – | – | – | – | – | – | – | – | – | –
16 | OCCC1CCC(Nc2cc3c4ccc(F)cc4nn3cn2)CC1 (stereo not drawn) [VKT-032] | – | – | – | – | – | – | – | – | – | – | – | – | – | – | – | – | – | – | EC50 [1, 25]: 10 µM; EC90 [1, 25]: 10 µM; CC50 ([2]; HCMV primary assay, HFF cells, read-out: CC50): 26.2 µM
17 | CC(C)(C)OC(=O)N[C@H]1CCC(Nc2cc3c4ccc(F)cc4nn3cn2)C1 (stereo partly drawn) [VKT-035] | 2 | 2 | 8.14 | 17.7 | 10 | 10 | 2 | 2 | 10 | 10 | 10 | 10 | 17.5 | 15.9 | 31.9 | 7.6 | 10 | 10 | –
18 | Fc1ccc2c(c1)nn1cnc(NC3CCNCC3)cc21 [VKT-319, 7-fluoro-N-(piperidin-4-yl)pyrimido[1,6-b]indazol-3-amine] | 10 | 10 | 37.5 | – | – | – | – | – | – | – | – | – | – | – | – | – | – | – | –
